Experimental data published in patent US3931198A, “2-Amino-5-spiro substituted oxazoline-4-one compounds” (Abbott Laboratories, priority 1973, dated 1976).

Key:
central nervous system = assay: CNS activity (depressant or stimulant) in test mice; format: in vivo; conditions: i.p.
Description: (§1) Table VI below details the activity of the various species of this series along with the dosages utilized expressed in mg/kg of body weight and the lethal dosage at which 50 percent of the animals expire (^LD 50) for each of the compounds. Unless otherwise indicated, the dosage and the ^LD 50 were administered by intraperitoneal injection. It is to be understood, of course, that the particular route of administration is not critical to the manifestation of biological effects.

[1] = LD50, lethal dosage at which 50 percent of the animals expire; conditions: mouse, in vivo, ip; mice, intraperitoneal injection unless otherwise indicated
Description: as §1

rats = assay: Learning and retention (escape time, jump out test) after electroconvulsive shock on a modified Cook-Weidley apparatus; format: in vivo; conditions: for Mean Escape Time, Retention Trial: 1 hour after last acquisition trial
Description: In addition to the foregoing activity, the administration of some of these novel compounds to warm-blooded animals results in an increased rate of learning by the animal coupled with a prolonged period of retention of the learned behavior.
The behavioral effects resulting from the administration of these compounds to rats were evaluated on a modified Cook-Weidley apparatus (L. Cook and E. Weidley, Ann. N.Y. Acad. Sci., 66, 790, 1957). The apparatus consists of a chamber with a grid flooring and an escape platform outside the chamber. The electric shock to the grid floor was controlled by a rheostat mechanism and scrambler. Rats were divided into 2 groups for each test trial. One group was administered saline as the control and the other group the test compound about 1/2 hour prior to electroconvulsive shock. It is known that electroconvulsive shock induces a state of proactive amnesia or an impaired learning rate (Deutsch, J.A., 1962, Ann. Rev. Psychol., 24, 259). Then, 15 minutes after electroconvulsive shock, the rats were given 10 acquisition trials on the jump out test to measure learning rates. Each acquisition trial consisted of 15 seconds in the chamber without any stimulation followed by 10 seconds of buzzer stimulation and culminated by 5 seconds of buzzer-plus-shock stimulation. The time from entrance into the apparatus until the rat jumps out is recorded as the escape time. Retention of the learned behavioral pattern was tested by repeating the test one hour after the last acquisition trial. The test sequence for each trial was terminated upon successful completion of the task, e.g., jumping out of the chamber. EFFECT OF 2-AMINO-8-METHYL-1-OXA-3,8-DIAZASPIRO [4,5]DEC-2-EN-4-ONE INTRAPERITONEAL ADMINISTRATION Mean Escape Time -- Sec. Trial Test Cpd. -- 10 mg/kg Control ______________________________________ 1 29.8 ± 0.3 30.0 ± 0.0 2 29.5 ± 0.5 29.3 ± 0.8 3 13.8 ± 1.7 26.0 ± 2.4 4 12.0 ± 2.1 22.0 ± 3.6 5 7.0 ± 1.6 22.3 ± 3.8 6 7.8 ± 1.5 18.5 ± 1.9 7 6.5 ± 1.6 18.0 ± 2.3 8 7.0 ± 2.2 13.0 ± 2.9 9 10.8 ± 3.0 15.6 ± 2.1 10 9.0 ± 1.2 13.9 ± 1.7 Retention Trial -- 1 hour after last Acquisition Trial: 13.8 ± 1.4 15.8 ± 3.3 EFFECT OF 2-AMINO-7,7,9-TRIMETHYL-1-OXA-3-AZASPIRO [4,5]DEC-2-EN-4-ONE INTRAPERITONEAL ADMINISTRATION Mean Escape Time -- Sec. Trial Test Cpd. 20 mg/kg Control ______________________________________ 1 30.0 ± 0.0 30.0 ± 0.0 2 29.0 ± 0.4 29.5 ± 0.2 3 21.2 ± 3.0 19.7 ± 5.2 4 17.7 ± 5.4 20.2 ± 5.3 5 14.7 ± 1.8 18.0 ± 2.7 6 18.0 ± 3.9 18.5 ± 3.6 7 10.0 ± 2.1 20.2 ± 4.7 8 5.5 ± 1.8 16.5 ± 3.8 9 6.7 ± 2.5 18.7 ± 5.0 10 7.2 ± 2.8 13.7 ± 4.4 Retention Trial -- 1 hour after last Acquisition Trial: 8.0 ± 2.6 20.2 ± 3.3 EFFECT OF 2-AMINO-7,9-DIMETHYL-1-OXA-3-AZASPIRO [4,5]DEC-2-EN-4-ONE ORAL ADMINISTRATION Mean Escape Time -- Sec. Trial Test Cpd. -- 20 mg/kg Control ______________________________________ 1 30.0 ± 0.0 30.0 ± 0.0 2 29.2 ± 0.4 29.7 ± 0.2 3 20.0 ± 4.3 27.2 ± 1.8 4 7.5 ± 2.9 19.7 ± 2.4 5 4.7 ± 0.8 16.0 ± 3.2 6 7.2 ± 2.0 14.7 ± 3.6 7 8.0 ± 1.6 18.7 ± 4.5 8 10.5 ± 3.7 11.0 ± 2.6 9 7.0 ± 1.2 13.0 ± 3.2 10 7.5 ± 2.1 15.5 ± 4.1 Retention Trial -- 1 hour after last Acquisition Trial: 6.7 ± 1.4 15.7 ± 5.0 ______________________________________

With `CC1CC2(CC(C)C1C)OC(N)=NC2=O` (stereo not drawn) [2-amino-7,8,9-trimethyl-1-oxa-3-azaspiro[4,5]dec-2-en-4-one] the Activity (central nervous system; dose 200 mg/kg) was “depressant” and the LD50 [1] was over 1000 mg/kg.
For `NC1=NC(=O)C2(CCCCCC2)O1` [2-amino-1-oxa-3-azaspiro[4,6]undec-2-en-4-one], the Activity (central nervous system; dose 500 mg/kg) was “depressant” and the LD50 [1] was over 1000 mg/kg.
For `NC1=NC(=O)C2(CCN(CCc3ccccc3)CC2)O1` [2-amino-8-phenethyl-1-oxa-3,8-diazaspiro-[4,5]dec-2-en-4-one], the Activity (central nervous system; dose 200 mg/kg) was “depressant” and the LD50 [1] was over 1000 mg/kg.
With `CC1CCC2(CC1)OC(N)=NC2=O` (stereo not drawn) [2-amino-8-methyl-1-oxa-2-aza-spiro[4,5]dec-2-en-4-one] the Activity (central nervous system; dose 500 mg/kg) was “depressant” and the LD50 [1] was over 1000 mg/kg.
In the case of `NC1=NC(=O)C2(CC3CCC2C3)O1` (stereo not drawn) [2'-aminospiro[norbornane-2,5'-[2]oxazolin]-4'-one], the Activity (central nervous system; dose 500 mg/kg) is reported as “depressant” and the LD50 [1] is reported as over 1000 mg/kg.
In the case of `CC1CC(C)(C)CC2(C1)OC(N)=NC2=O` (stereo not drawn) [2-amino-7,7,9-trimethyl-1-oxa-3-azaspiro[4,5]dec-2-en-4-one], the Activity (central nervous system; dose 0.1 mg/kg) is reported as “stimulant”, the LD50 [1] is reported as over 750 mg/kg and the “Mean Escape Time, Retention Trial” value (rats; intraperitoneal, 20 mg/kg) is reported as 8.0 ± 2.6 s. The “Mean Escape Time” value (rats; intraperitoneal, 20 mg/kg, acquisition trial 1) was 30.0 ± 0.0 s, the “Mean Escape Time” value (rats; intraperitoneal, 20 mg/kg, acquisition trial 2) was 29.0 ± 0.4 s and the “Mean Escape Time” value (rats; intraperitoneal, 20 mg/kg, acquisition trial 3) was 21.2 ± 3.0 s. For the same molecule, the “Mean Escape Time” value (rats; intraperitoneal, 20 mg/kg, acquisition trial 4) was 17.7 ± 5.4 s, the “Mean Escape Time” value (rats; intraperitoneal, 20 mg/kg, acquisition trial 5) was 14.7 ± 1.8 s and the “Mean Escape Time” value (rats; intraperitoneal, 20 mg/kg, acquisition trial 6) was 18.0 ± 3.9 s. For the same molecule, the “Mean Escape Time” value (rats; intraperitoneal, 20 mg/kg, acquisition trial 7) was 10.0 ± 2.1 s, the “Mean Escape Time” value (rats; intraperitoneal, 20 mg/kg, acquisition trial 8) was 5.5 ± 1.8 s and the “Mean Escape Time” value (rats; intraperitoneal, 20 mg/kg, acquisition trial 9) was 6.7 ± 2.5 s. The “Mean Escape Time” value (rats; intraperitoneal, 20 mg/kg, acquisition trial 10) was 7.2 ± 2.8 s.
With `CC(C)N1CCC2(CC1)OC(N)=NC2=O` [2-amino-8-isopropyl-1-oxa-3,8-diazaspiro-[4,5]dec-2-en-4-one] the Activity (central nervous system; dose 100 mg/kg) was “depressant” and the LD50 [1] was 1000 mg/kg.
For `NC1=NC(=O)C2(CCC2)O1` [6-amino-5-oxa-7-azaspiro[3,4]oct-6-en-8-one], the Activity (central nervous system; dose 200 mg/kg) was “depressant” and the LD50 [1] was over 500 mg/kg.
For `NC1=NC(=O)C2(CCN(Cc3ccccc3)CC2)O1` [2-amino-8-benzyl-1-oxa-3,8-diazaspiro[4,5]dec-2-en-4-one], the Activity (central nervous system; dose 200 mg/kg) was “depressant” and the LD50 [1] was over 1000 mg/kg.
In the case of `NC1=NC(=O)C2(CCC3CCCCC3C2)O1` (stereo not drawn) [2'-amino-octahydrospiro[naphthalene-2(1H),5'-[2]oxazolin]-4'-one], the Activity (central nervous system; dose 500 mg/kg) is reported as “depressant” and the LD50 [1] is reported as over 1000 mg/kg.
In the case of `CN1CCC2(CC1)OC(N)=NC2=O` [2-amino-8-methyl-1-oxa-3,8-diazaspiro[4,5]dec-2-en-4-one], the Activity (central nervous system; dose 10 mg/kg) is reported as “stimulant”, the LD50 [1] is reported as over 1000 mg/kg and the “Mean Escape Time, Retention Trial” value (rats; intraperitoneal, 10 mg/kg) is reported as 13.8 ± 1.4 s. For the same molecule, the “Mean Escape Time” value (rats; intraperitoneal, 10 mg/kg, acquisition trial 1) was 29.8 ± 0.3 s, the “Mean Escape Time” value (rats; intraperitoneal, 10 mg/kg, acquisition trial 2) was 29.5 ± 0.5 s and the “Mean Escape Time” value (rats; intraperitoneal, 10 mg/kg, acquisition trial 3) was 13.8 ± 1.7 s. The “Mean Escape Time” value (rats; intraperitoneal, 10 mg/kg, acquisition trial 4) was 12.0 ± 2.1 s, the “Mean Escape Time” value (rats; intraperitoneal, 10 mg/kg, acquisition trial 5) was 7.0 ± 1.6 s and the “Mean Escape Time” value (rats; intraperitoneal, 10 mg/kg, acquisition trial 6) was 7.8 ± 1.5 s. For the same molecule, the “Mean Escape Time” value (rats; intraperitoneal, 10 mg/kg, acquisition trial 7) was 6.5 ± 1.6 s, the “Mean Escape Time” value (rats; intraperitoneal, 10 mg/kg, acquisition trial 8) was 7.0 ± 2.2 s and the “Mean Escape Time” value (rats; intraperitoneal, 10 mg/kg, acquisition trial 9) was 10.8 ± 3.0 s. The “Mean Escape Time” value (rats; intraperitoneal, 10 mg/kg, acquisition trial 10) was 9.0 ± 1.2 s.
For `NC1=NC(=O)C2(CCCCC2)O1` [2-amino-1-oxa-3-azaspiro[4,5]dec-2-en-4-one], the Activity (central nervous system; dose 200 mg/kg) was “depressant” and the LD50 [1] was over 1000 mg/kg.
For `NC1=NC(=O)C2(CCCCCCC2)O1` [2-amino-1-oxa-3-azaspiro[4,7]dodec-2-en-4-one], the Activity (central nervous system; dose 500 mg/kg) was “depressant” and the LD50 [1] was over 1000 mg/kg.
In the case of `NC1=NC(=O)C2(CCCC2)O1` [2-amino-1-oxa-3-azaspiro[4,4]non-2-en-4-one], the Activity (central nervous system; dose 500 mg/kg) is reported as “depressant” and the LD50 [1] is reported as over 1000 mg/kg.
For `CC1CC(C)CC2(C1)OC(N)=NC2=O` (stereo not drawn) [2-amino-7,9-dimethyl-1-oxa-3-aza-spiro[4,5]dec-2-en-4-one], the Activity (central nervous system; dose 1 mg/kg) was “stimulant”, the LD50 [1] was about 300 mg/kg and the “Mean Escape Time, Retention Trial” value (rats; oral, 20 mg/kg) was 6.7 ± 1.4 s. The “Mean Escape Time” value (rats; oral, 20 mg/kg, acquisition trial 1) was 30.0 ± 0.0 s, the “Mean Escape Time” value (rats; oral, 20 mg/kg, acquisition trial 2) was 29.2 ± 0.4 s and the “Mean Escape Time” value (rats; oral, 20 mg/kg, acquisition trial 3) was 20.0 ± 4.3 s. For the same molecule, the “Mean Escape Time” value (rats; oral, 20 mg/kg, acquisition trial 4) was 7.5 ± 2.9 s, the “Mean Escape Time” value (rats; oral, 20 mg/kg, acquisition trial 5) was 4.7 ± 0.8 s and the “Mean Escape Time” value (rats; oral, 20 mg/kg, acquisition trial 6) was 7.2 ± 2.0 s. The “Mean Escape Time” value (rats; oral, 20 mg/kg, acquisition trial 7) was 8.0 ± 1.6 s, the “Mean Escape Time” value (rats; oral, 20 mg/kg, acquisition trial 8) was 10.5 ± 3.7 s and the “Mean Escape Time” value (rats; oral, 20 mg/kg, acquisition trial 9) was 7.0 ± 1.2 s. For the same molecule, the “Mean Escape Time” value (rats; oral, 20 mg/kg, acquisition trial 10) was 7.5 ± 2.1 s.
With `NC1=NC(=O)C2(CCNCC2)O1` [2-amino-1-oxa-3,8-diazaspiro[4,5]dec-2-en-4-one] the Activity (central nervous system; dose 50 mg/kg) was “depressant” and the LD50 [1] was over 1000 mg/kg.
For `CC1CCCC2(C1)OC(N)=NC2=O` (stereo not drawn) [2-amino-7-methyl-1-oxa-3-aza-spiro[4,5]dec-2-en-4-one], the Activity (central nervous system; dose 200 mg/kg) was “depressant” and the LD50 [1] was about 750 mg/kg.
For `CC1CC2(CC(C)N1C)OC(N)=NC2=O` (stereo not drawn) [2-amino-7,8,9-trimethyl-1-oxa-3,8-diazaspiro[4,5]-2-en-4-one], the Activity (central nervous system; dose 20 mg/kg) was “depressant” and the LD50 [1] was over 500 mg/kg.
